From paper PMC8838850, “Synthesis, Antimicrobial, Anti-Virulence and Anticancer Evaluation of New 5(4H)-Oxazolone-Based Sulfonamides” (Molecules, 2022)
In brackets after ≈: the same amount, converted by molar mass. Several values for one entry are separate records, joined by “and”; a condition that tells them apart may be missing. Equal values may be shown once. Read-outs that look alike come from different tables or passages of the source. Blank lines part the entries; values can stand above or below the compound they belong to.

Experiments:
[1] = system: Klebsiella pneumoniae ATCC 27736; assay: MIC by agar dilution; format: cell-based; details: 20 h
Procedure: (§1) The MICs of the synthesized compound were determined by agar dilution method according to the Clinical Laboratory and Standards Institute Guidelines (CLSI, 2015). Briefly, the tested strains were incubated overnight in tryptic soy broth (TSB) (Oxoid, United Kingdom) and then diluted in Muller–Hinton (MH) broth (Oxoid, United Kingdom) to turbidity approximating to the equivalent of 0.5 McFarland standard. The suspensions were further diluted with sterile saline (1:10) and standardized inoculums (approximately 10^4 CFU per spot) were spotted on the surfaces of MH agar (Oxoid, United Kingdom) plates containing different concentrations of tested compounds and a control plate. The MICs were the lowest concentrations that inhibit growth on the plates after incubation at 37 °C for 20 h.

[2] = system: Escherichia coli ATCC 10536; assay: MIC by agar dilution; format: cell-based; details: 20 h
Procedure: as §1

[3] = system: Micrococcus spp. ATCC 10240; assay: MIC by agar dilution; format: cell-based; details: 20 h
Procedure: as §1

[4] = system: Staphylococcus epidermidis ATCC 12228; assay: MIC by agar dilution; format: cell-based; details: 20 h
Procedure: as §1

[5] = system: Staphylococcus aureus ATCC 6538; assay: MIC by agar dilution; format: cell-based; details: 20 h
Procedure: as §1

[6] = system: Salmonella typhimurium ATCC 14028; assay: MIC by agar dilution; format: cell-based; details: 37 °C, 20 h
Procedure: as §1

BxPC-3 = assay: SRB cellular proliferation assay; format: cell-based, human; details: BxPC-3 cells, mean ± SD (n = 3)
Procedure: (§2) The pancreatic human cancer cell lines BxPC-3 and Panc-1, the human hepatocellular carcinoma (HepG-2), and the normal immortalized pancreatic cell line HPDE, that were used in this study, were obtained from the American Type Culture Collection (Rockville, USA). Cell lines were cultured and treated with the tested compounds or dimethyl sulfoxide (DMSO) as previously described. Cells were cultivated in DMEM medium (Invitrogen, Carlsbad, CA, USA), supplemented with streptomycin, penicillin and fetal bovine serum (FCS) (Invitrogen, Carlsbad, CA, USA). The sulforhodamine B (SRB) assay was employed to assess the anti-proliferative effects of tested compounds on cancer cells. Cell lines were incubated and regularly treated with DMSO or increasing doses of tested compounds for 48 h. The cells were fixed with 10% trichloroacetic acid and stained with SRB fluorescent dye for 30 min. Then, the bounded SRB dye to cellular proteins was dissolved in 10 mM Tris base after washing excess dye with 1% acetic acid. The absorbance was measured at 510 nm in a reader (Biotek, Winooski, VT, USA).

HepG-2 = assay: SRB cellular proliferation assay; format: cell-based, human; details: mean ± SD (n = 3)
Procedure: as §2

Panc-1 = assay: SRB cellular proliferation assay; format: cell-based, human; details: Panc-1 cells, mean ± SD (n = 3)
Procedure: as §2

[7] = system: Pseudomonas aeruginosae ATCC 47085; assay: MIC by agar dilution; format: cell-based, Pseudomonas aeruginosa; details: 20 h
Procedure: as §1

HPDE = assay: SRB cell viability assay, normal cells; format: cell-based
Procedure: Firstly, to determine the cell viability, HPDE cell lines were treated with all new synthesized compounds 9a–k for 96 h using sulforhodamine B (SRB) assay. All newly synthesized compounds were proven non-toxic with IC50 more than […] (Table 2).
The pancreatic human cancer cell lines BxPC-3 and Panc-1, the human hepatocellular carcinoma (HepG-2), and the normal immortalized pancreatic cell line HPDE, that were used in this study, were obtained from the American Type Culture Collection (Rockville, USA). Cell lines were cultured and treated with the tested compounds or dimethyl sulfoxide (DMSO) as previously described. Cells were cultivated in DMEM medium (Invitrogen, Carlsbad, CA, USA), supplemented with streptomycin, penicillin and fetal bovine serum (FCS) (Invitrogen, Carlsbad, CA, USA).
The sulforhodamine B (SRB) assay was employed to assess the anti-proliferative effects of tested compounds on cancer cells. Cell lines were incubated and regularly treated with DMSO or increasing doses of tested compounds for 48 h. The cells were fixed with 10% trichloroacetic acid and stained with SRB fluorescent dye for 30 min. Then, the bounded SRB dye to cellular proteins was dissolved in 10 mM Tris base after washing excess dye with 1% acetic acid. The absorbance was measured at 510 nm in a reader (Biotek, Winooski, VT, USA).

[8] = system: Aspergillus niger ATCC 16404; assay: MIC by agar dilution (antifungal); format: cell-based
Procedure: as §1

[9] = system: Candida albicans ATCC 10231; assay: MIC by agar dilution (antifungal); format: cell-based; details: Candida albicans ATCC 10231
Procedure: as §1

- MIC ([1]; ATCC27736, 37 °C, read-out: Minimum inhibitory concentration (MIC)): > 32 µg/mL
- MIC ([2]; ATCC10536, 37 °C, read-out: Minimum inhibitory concentration (MIC)): 16 µg/mL (≈ 38.1 µM)
- MIC ([3]; ATCC10240, 37 °C, read-out: Minimum inhibitory concentration (MIC)): 2 µg/mL (≈ 4.77 µM)
- MIC ([4]; ATCC12228, 37 °C, read-out: Minimum inhibitory concentration (MIC)): 4 µg/mL (≈ 9.54 µM)
- MIC ([5]; ATCC6538, 37 °C, read-out: Minimum inhibitory concentration (MIC)): 4 µg/mL (≈ 9.54 µM)
- MIC ([6]; Salmonella enterica, read-out: Minimum inhibitory concentration (MIC)): > 32 µg/mL
- IC50 (BxPC-3; Homo sapiens, read-out: IC50): 7.27 ± 1.49 µg/mL (≈ 17.3 µM)
- IC50 (Panc-1; Homo sapiens, read-out: IC50): 19.9 ± 3.35 µg/mL (≈ 47.4 µM)
- MIC ([7]; ATCC47085, 37 °C, read-out: Minimum inhibitory concentration (MIC)): > 32 µg/mL
- melting point: 210 to 212 °C
- MIC ([8]; ATCC16404, 20 h, read-out: Minimum inhibitory concentration (MIC)): 16 µg/mL (≈ 38.1 µM)
- MIC ([8]; ATCC16404, read-out: Minimum inhibitory concentration (MIC)): > 32 µg/mL
Compound: Cc1ccc(S(=O)(=O)Nc2ccccc2C2=N/C(=C/c3ccncc3)C(=O)O2)cc1 [Compound 9k, (E)-4-Methyl-N-(2-(5-oxo-4-(pyridin-4-ylmethylene)-4,5-dihydrooxazol-2-yl)phenyl)benzenesulfonamide]
- IC50 (HepG-2; Homo sapiens, HepG2, HepG-2 cells, read-out: IC50): 33.1 ± 5.12 µg/mL (≈ 78.9 µM)
- IC50 (HPDE; normal HPDE cells, read-out: IC50): > 50 µg/mL

Compound: (E)-4-Methyl-N-(2-(4-(naphthalen-1-ylmethylene)-5-oxo-4,5-dihydrooxazol-2-yl)phenyl)benzenesulfonamide [Compound 9h]
- Minimum inhibitory concentration (MIC) ([1]; 37 °C): >32 µg/mL
- Minimum inhibitory concentration (MIC) ([2]; 37 °C): >32 µg/mL
- Minimum inhibitory concentration (MIC) ([3]; 37 °C): >32 µg/mL
- Minimum inhibitory concentration (MIC) ([4]; 37 °C): >32 µg/mL
- Minimum inhibitory concentration (MIC) ([5]; 37 °C): >32 µg/mL
- Minimum inhibitory concentration (MIC) [6]: >32 µg/mL
- IC50 (BxPC-3): 12.60 ± 0.62 µg/mL
- IC50 (HepG-2; HepG-2 cells): 17.34 ± 0.96 µg/mL
- IC50 (Panc-1): 14.72 ± 2.87 µg/mL
- Minimum inhibitory concentration (MIC) ([7]; 37 °C): >32 µg/mL
- IC50 (HPDE; HPDE normal immortalized cell line, 96 h): >50000 µg/mL
- Minimum inhibitory concentration (MIC) [9]: 4 µg/mL and 2 µg/mL
- Minimum inhibitory concentration (MIC) [8]: 8 µg/mL and 4 µg/mL
